Values of other authors in PMC9829398 (Plant Biotechnology Journal, 2022).

How the values were obtained:
[1] = system: Aurora C; details: read-out: IC50 for Aurora C; ref D'Alise et al., [2008]; cited from earlier work
[2] = system: Aurora B; details: read-out: IC50 for Aurora B; ref D'Alise et al., [2008]; cited from earlier work

**Q.** For `c1nc2nc(Nc3ccc(N4CCOCC4)cc3)nc(NC3CCCCC3)c2[nH]1` [Reversine], which IC50 [1] is on record?
**A.** The IC50 was 400 nM.
